# Laboratory results: article doi:10.64898/2025.12.18.695077v1, “Stereospecific GPG acylation by CLN8 drives BMP biosynthesis and its loss leads to Batten disease” (biorxiv, 2025)
# How the values were obtained:
# [1] = molecular target: T1, CLN8 (tag-cleaved, codon-optimised human CLN8 from yeast) (Homo sapiens, UniProt Q9UBY8); assay: cryo-EM structure, […] A; assay type: binding; conditions: covalent acyl-enzyme intermediate at H138 proposed (continuous density not resolved), CoA at the dimer interface, incubated with 100 uM
# T1 construct: full-length, C-terminal 6xHis tag cut with Factor Xa; expressed in S. cerevisiae W303.1B; homodimer in LMNG; residues 1-15 and 261-286 disordered
# [2] = molecular target: T1, CLN8 (tag-cleaved, codon-optimised human CLN8 from yeast); assay: cryo-EM structure, […] A; assay type: binding; conditions: co-purified; transmembrane pocket of each monomer at the dimer interface, not the active site
structure (smiles),measurement,setting,value
CC/C=C\C/C=C\C/C=C\C/C=C\C/C=C\C/C=C\CCC(=O)SCCNC(=O)CCNC(=O)[C@H](O)C(C)(C)COP(=O)(O)OP(=O)(O)OC[C@H]1O[C@@H](n2cnc3c(N)ncnc32)[C@H](O)[C@@H]1OP(=O)(O)O [C22:6-CoA],"cryo-EM structure, 2.7 A",[1]; C22:6 chain modelled in the active site,we determined cryo-EM structures of CLN8 prepared in the presence of either C18:1-CoA or C22:6-CoA
CCCCCCCC/C=C\CCCCCCCC(=O)SCCNC(=O)CCNC(=O)[C@H](O)C(C)(C)COP(=O)(O)OP(=O)(O)OC[C@H]1O[C@@H](n2cnc3c(N)ncnc32)[C@H](O)[C@@H]1OP(=O)(O)O [C18:1-CoA],"cryo-EM structure, 2.7 A",[1]; oleoyl chain modelled in the active site,we determined cryo-EM structures of CLN8 prepared in the presence of either C18:1-CoA or C22:6-CoA
CC(C)(COP(=O)(O)OP(=O)(O)OC[C@H]1O[C@@H](n2cnc3c(N)ncnc32)[C@H](O)[C@@H]1OP(=O)(O)O)[C@@H](O)C(=O)NCCC(=O)NCCS [CoA],"cryo-EM structure, 3.65 A",[2],we observed two coenzyme A (CoA) molecules bound in pockets located within the transmembrane region
